Patent publication US20160280651A1, “COMPOUNDS THAT INDUCE ABA RESPONSES” (THE REGENTS OF THE UNIVERSITY OF CALIFORNIA, priority 2013, published 2016)

Target: T1, HAB1 with PYR/PYL receptors (Arabidopsis thaliana, UniProt Q9FLB1)
T1 construct: 6xHis (N); made in house; host or cells: E. coli BL21[DE3]pLysS
T1 sequence (Q9FLB1 1-203): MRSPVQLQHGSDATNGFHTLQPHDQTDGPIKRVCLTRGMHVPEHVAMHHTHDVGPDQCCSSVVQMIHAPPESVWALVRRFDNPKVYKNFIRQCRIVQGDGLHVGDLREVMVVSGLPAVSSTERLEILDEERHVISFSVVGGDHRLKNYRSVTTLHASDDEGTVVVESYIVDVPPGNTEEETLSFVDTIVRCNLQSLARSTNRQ
T1 sequence (Q9CAJ0 1-511 partner): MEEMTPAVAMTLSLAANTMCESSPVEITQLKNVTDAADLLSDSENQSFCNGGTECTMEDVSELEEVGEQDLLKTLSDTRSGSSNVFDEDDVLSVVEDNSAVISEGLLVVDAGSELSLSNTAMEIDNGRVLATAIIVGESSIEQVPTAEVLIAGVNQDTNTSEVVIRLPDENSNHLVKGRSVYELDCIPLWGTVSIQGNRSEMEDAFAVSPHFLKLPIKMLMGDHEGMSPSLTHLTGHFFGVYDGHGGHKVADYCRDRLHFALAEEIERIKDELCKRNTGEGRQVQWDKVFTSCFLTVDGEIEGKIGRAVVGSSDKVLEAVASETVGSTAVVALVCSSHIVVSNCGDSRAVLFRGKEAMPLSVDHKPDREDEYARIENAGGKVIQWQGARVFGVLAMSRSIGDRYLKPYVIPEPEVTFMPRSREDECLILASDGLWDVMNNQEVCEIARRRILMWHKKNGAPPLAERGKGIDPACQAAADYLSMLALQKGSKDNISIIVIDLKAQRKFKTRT
Experiment: Receptor-mediated PP2C inhibition assay with HAB1, Example 1
Format: biochemical
Settings: PYL5
Description: FIG. 2A-FIG. 2C. Novel ABA agonists inhibit PPC2 activity through multiple PYR/PYL. (A) Chemical structure of naturally occurring (+)-ABA and selected ABA agonists. (B) and (C) HAB1, ABU, and ABI2 PP2C enzyme activity based ABA-agonist assays for various receptors in the presence or absence of 10 μM each test chemical.
FIG. 3A-FIG. 3B. (A) Receptor-mediated dose-dependent inhibition of PP2C enzyme activity by ABA agonists and analogs. (B) Observed compound IC50 values in enzymatic HAB1 PP2C-based ABA-agonist assays.
FIG. 4A-FIG. 4B. Quinabactin activates multiple ABA receptors. (A) Chemical structures of ABA, pyrabactin and quinabactin. (B) Chemical-dependent inhibition of HAB1 by ABA receptors. IC50 values (nM) were determined as described in the methods using 50 nM HAB1, 50 nM and multiple concentrations of compounds; full dose response curves are provided as in FIG. 3. (nd) correspond to receptors that were not produced as active proteins. The phylogenetic tree is a Neighbor-Joining tree made using the JTT distance matrix in MEGA5 (Tamura K, et al. (2011) MEGA5: Molecular Evolutionary Genetics Analysis Using Maximum Likelihood, Evolutionary Distance, and Maximum Parsimony Methods. Molecular Biology and Evolution 28(10):2731-2739).
HAB1 and PYL proteins were expressed and purified as described previously (Park S Y, et al. (2009) Abscisic Acid Inhibits Type 2C Protein Phosphatases via the PYR/PYL Family of START Proteins. Science 324(5930):1068-1071), with minor modifications. To obtain GST-HAB1, -ABI1 and -ABI2 fusion proteins, the HAB1 cDNA was cloned into pGex-2T whereas ABI1 and ABI2 cDNAs were cloned into the vector pGex-4T-1. Expression was conducted in BL21[DE3]pLysS host cells. Transformed cells were pre-cultured overnight, transferred to LB medium and cultured at 30° C. to culture A600 of ˜0.5. The culture was then cooled on ice and MnCl2 added to 4 mM and IPTG added to 0.3 mM. After 16 hours incubation at 15° C., cells were harvested and recombinant proteins were purified on glutathione agarose as described previously (Park S Y, et al. (2009). To obtain 6×His-PYL receptor fusion proteins, receptor cDNAs for all 13 ABA receptors were cloned into the vector pET28 and expressed and purified as described previously (Mosquna A, et al. (2011) Potent and selective activation of abscisic acid receptors in vivo by mutational stabilization of their agonist-bound conformation. PNAS 108(51):20838-20843); this yielded soluble and functional protein (assessed using receptor-mediated PP2C inhibition assays) for all receptors except PYL7, PYL11 and PYL12. These three receptors were therefore alternatively expressed as maltose binding (MBP) fusion proteins using the vector pMAL-c; expression of these constructs was carried out in BL21 [DE3]pLysS host strain with the same induction conditions used for GST-HAB1. Recombinant MBP-PYL fusion proteins were purified from sonicated and cleared lysate using amylose resin (New England Biolab, Inc.) using the manufacturers purification instructions. This effort yielded an active MBP-PYL11 fusion protein, but failed for PYL7 and PYL12.
PP2C activity assays using recombinant receptors and PP2Cs were carried out as follows: Purified proteins were pre-incubated in 80 μl assay buffer containing 10 mM MnCl2, 3 μg bovine serum albumin and 0.1% 2-mercaptoethanol with ABA or ABA agonist for 30 minutes at 22° C. Reactions were started by adding 20 μL of a reaction solution containing 156 mM Tris-OAc, pH 7.9, 330 mM KOAc and 5 mM 4-methylumbelliferyl phosphate after which fluorescence measurements were immediately collected using an excitation filter 355 nm and an emission filter 460 nm on a Wallac plate reader. Reactions contained 50 nM PP2C and 100 nM PYR/PYL proteins, respectively.

For O=S(=O)(NCc1ccccn1)c1ccc(Br)c2ccccc12 [pyrabactin, reference compound], the “PP2C inhibition at saturation” value was ~40% and the IC50 (read-out: IC50 of PYL5 activation) was 900 nM.
